Patent EP4335840A1, “NEW CONTRAST AGENTS FOR USE IN DIAGNOSTIC IMAGING” (priority 2022, dated 2024)
Where two headings read alike, the source gives them in different places.

Assays:
[1] = Complex stability (transmetallation with Zn2+, proton relaxometry); type: physicochemical; settings: 72 hours, 2.5 mM Zn2+, 26 mM phosphate buffer, 37°C, pH 7.4; 1.41 T
Procedure: The used method is described elsewhere (Laurent S et al., Stability of MRI paramagnetic contrast media: a proton relaxometric protocol for transmetallation assessment. Invest Radiol. 2001 Feb;36(2):115-22). In brief: A solution containing 2.5 mmol/L of test compound and 2.5 mmol/L ZnCl2 in 26 mM phosphate buffer (KH2PO4 Merck; 1.09439.1000, #HC748513, pH 7,00), was incubated at 37°C over a period of at least 3 days. If test compounds are instable under these conditions, transmetallation during this test would lead to the formation of the Zn^2+ complex of the test item, while Gd^3+ is released and precipitated as highly insoluble GdPO4.
After 3d of incubation T1 relaxation time was observed. […] Table 2: Transmetallation stability [%] of paramagnetic contrast agents over 72 hours (2.5 mM Zn2+, 26 mM phosphate buffer, 37°C, pH 7.4).

[2] = 1.5 T, 37°C, from Rohrer et al., cited from earlier work; for r1 bovine plasma: bovine plasma instead of human plasma
[3] = test system: freshly isolated rat hepatocytes; assay: Uptake into freshly isolated rat hepatocytes; settings: rat hepatocyte uptake with OATP1B1/1B3 inhibitor Rifampicine, test item and inhibitor each 100 µM
Procedure: The rat hepatocytes were incubated (2.5 ·10^5 cells/well) for 2.5 to 4h in collagen coated 24-well plates (Fa. Beckton Dickinson Biocoat, cell environments, Collagen I Cellware) in Williams E-medium (Fa. Sigma W1878) in an incubator (37°C, 5% CO2 and 95% oxygen). After incubation the adherent hepatocytes were washed once with 37°C Hepes carbonate transport buffer (500 µL/well). The test items and RC1 were prepared from stock solutions (180 to 500 mM concentration) in Hepes carbonate transport buffer at pH 7.4 to reach a final concentration of 100 µmοl Gd/L. The specific uptake of the test item or RC1 into rat hepatocytes via OATP1 B1 and OATP1 B3 was challenged using a known OATP1B1/1B3 inhibitor (Rifampicine, Fa. Sigma R3501, test item and inhibitor 1:1 each 100 µM final concentration). The prepared rat hepatocyte plates were incubated with test solutions (500 µL/well) at 37°C for 10 min using a thermoshaker (Fa. Grant Bio, PHMP). Triplicates were performed for each test item. After incubating the cells were washed once with cold PBS buffer (Fa. Gibco, Dulbeccos PBS (+)). After washing the intact hepatocytes were lysed by addition of 500 µL cold 0.01 % Triton-X 100 in Millipore water for 1h. […] After 1h 500 µL of 10 nM Terbium ICP-MS standard was added in 2% nitric acid and 0.01% Triton 100 before the Gadolinium concentrations in the lysate were measured using ICP-MS (Agilent 8900, singleQuad, integr. Time 0.3 s, no gas, 5 replicates, Gd m/z 157, Tb m/z 159). As a reference standard RC1 is used in the same well plate. The hepatocyte uptake of the test compound is calculated relative to RC1 (resulting in the unit % of RC1).

[4] = Relaxivity measurements at 1.41 T in water and human plasma; type: physicochemical; settings: 37°C, normalized to Gd
Procedure: Relaxivity measurements at 1.41 T were performed using a MiniSpec mq60 spectrometer (Bruker Analytik, Karlsruhe, Germany) operating at a resonance frequency of 60 MHz and a temperature of 37°C. The T1 relaxation times were determined using the standard inversion recovery (IR) method with a fixed relaxation delay of at least 5 × T1. The variable inversion time (TI) was calculated automatically by the standard software of the MiniSpec mq60 (8 steps). The T2 measurements were performed by using a Carr-Purcell-Meiboom-Gill (CPMG) pulse sequence, applying a relaxation delay of at least 5 × T1.
Each relaxivity measurement was performed using three different Gd concentrations (3 concentrations between 0.05 and 2 mM). The T1 and T2 relaxation times of the example compounds 1 to 10 were measured in different media for example in water and human plasma. Human plasma preparation: For each experiment fresh blood was taken from a volunteer using 10 mL citrate-tubes (Sarstedt S-Monovette 02.1067.001, 10 mL, Citrate). The 10 mL citrate-tubes were carefully inverted 10 times to mix blood and anticoagulant and centrifuged for 15min at 1811 g at RT (Eppendorf, Centrifuge 5810R).
The relaxivities ri (where i=1, 2) were calculated based on the measured relaxation rates Ri in water and plasma: ri = (Ri−Ri(0))/CGd [formula] where Ri(0) represent the relaxation rate of the respective solvent and CGd the concentration of the compound normalized to the Gadolinium. The Gadolinium concentrations of the investigated solutions were verified by Inductively Coupled Plasma Mass Spectrometry (ICP-MS Agilent 7500a, Waldbronn, Germany). Table 3: Relaxivities of investigated compounds in water and human plasma at 1.41 T and relaxivities of Reference compounds 1-3 (RC1-RC3) at 1.5 T in water and bovine plasma. All values are measured at 37°C and normalized to Gd and given in L mmol-1 s-1.

[5] = target: T1, OATP1B1 (Homo sapiens, UniProt Q9Y6L6); assay: Uptake into stable transfected OATP1B1 HEK 293 cells; type: cell-based
T1 sequence (Q9Y6L6 1-691): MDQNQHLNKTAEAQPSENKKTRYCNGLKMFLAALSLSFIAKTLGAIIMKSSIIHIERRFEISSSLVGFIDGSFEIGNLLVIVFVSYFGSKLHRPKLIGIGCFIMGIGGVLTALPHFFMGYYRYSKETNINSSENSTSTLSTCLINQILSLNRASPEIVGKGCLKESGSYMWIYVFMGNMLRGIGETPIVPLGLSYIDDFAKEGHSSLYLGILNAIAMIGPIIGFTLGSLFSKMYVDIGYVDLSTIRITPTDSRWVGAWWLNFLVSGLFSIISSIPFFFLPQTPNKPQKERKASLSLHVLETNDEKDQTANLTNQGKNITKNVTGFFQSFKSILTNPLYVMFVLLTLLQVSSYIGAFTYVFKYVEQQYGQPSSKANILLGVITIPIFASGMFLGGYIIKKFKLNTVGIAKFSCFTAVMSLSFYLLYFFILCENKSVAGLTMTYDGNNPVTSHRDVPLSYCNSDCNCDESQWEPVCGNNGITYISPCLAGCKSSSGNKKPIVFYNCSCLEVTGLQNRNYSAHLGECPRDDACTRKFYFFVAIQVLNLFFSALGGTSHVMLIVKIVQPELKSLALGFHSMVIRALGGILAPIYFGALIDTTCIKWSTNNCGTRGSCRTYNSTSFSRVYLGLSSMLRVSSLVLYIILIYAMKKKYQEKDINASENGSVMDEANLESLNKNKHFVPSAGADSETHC

[6] = target: T2, OATP1B3 (Homo sapiens, UniProt Q9NPD5); assay: Uptake into stable transfected OATP1B3 HEK 293 cells; type: cell-based
T2 sequence (Q9NPD5 1-702): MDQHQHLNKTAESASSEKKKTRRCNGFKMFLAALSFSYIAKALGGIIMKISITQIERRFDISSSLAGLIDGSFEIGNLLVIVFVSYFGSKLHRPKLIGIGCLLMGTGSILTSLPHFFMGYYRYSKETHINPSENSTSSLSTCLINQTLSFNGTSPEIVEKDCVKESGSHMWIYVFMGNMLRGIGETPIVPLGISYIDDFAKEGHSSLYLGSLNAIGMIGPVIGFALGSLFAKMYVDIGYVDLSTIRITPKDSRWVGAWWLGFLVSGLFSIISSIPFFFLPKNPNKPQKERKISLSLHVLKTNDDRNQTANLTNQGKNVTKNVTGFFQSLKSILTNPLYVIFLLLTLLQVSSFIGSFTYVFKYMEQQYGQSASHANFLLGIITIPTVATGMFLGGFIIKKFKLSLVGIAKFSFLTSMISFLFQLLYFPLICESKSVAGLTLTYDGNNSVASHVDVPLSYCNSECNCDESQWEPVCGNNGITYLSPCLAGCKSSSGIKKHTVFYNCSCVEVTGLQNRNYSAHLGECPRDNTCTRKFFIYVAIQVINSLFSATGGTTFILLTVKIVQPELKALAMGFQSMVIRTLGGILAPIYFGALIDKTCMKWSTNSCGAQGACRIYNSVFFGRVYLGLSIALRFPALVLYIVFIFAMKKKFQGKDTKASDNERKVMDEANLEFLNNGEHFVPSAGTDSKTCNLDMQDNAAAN

[7] = Water solubility in aqueous buffer; type: physicochemical
Procedure: The exploratory water solubility of the compounds is determined at room temperature (20°C) in 0.5 mL buffer solution (10 mM Tris-HCI, pH 7.4) in the microcentrifuge tubes (Eppendorf, 2.0 mL safe-lock caps). The solid compounds were added stepwise to the buffer solution. More substance is added once all the suspended material is dissolved until an equilibrium between undissolved and dissolved substance is reached. The suspension was mixed using a shaker (Heidolph Reax 2000) and treated 5 min in an ultrasound bath (Bandelin, Sonorex Super RK255H). The Gadolinium concentration of the test substance in the clear solution is measured by ICP-MS. Table 1: Solubilities of compounds in aqueous buffer at 20°C (pH 7.4).

[8] = No-observed-adverse-effect level (NOAEL), intravenous bolus; settings: mice, intravenous bolus via tail vein, dose levels up to 2.5 mmol Gd/kg bw
[9] = in vivo; cited from earlier work
[10] = OATP1B1-HEK 293 cell uptake with Rifampicine
[11] = OATP1B3-HEK 293 cell uptake with Rifampicine
[12] = aqueous buffer 10 mM Tris-HCl, pH 7.4, 20°C, Gd by ICP-MS

| Compound | Stability (transmetallation stability, T1 relaxation rates R1n/R10) [1] | r1 bovine plasma [2] [L/mmol/s] | r1 water [2] [L/mmol/s] | Inhibition Rifampicine [3] [% inhibition] | r1 human plasma [4] [L/mmol/s] | r1 water [4] [L/mmol/s] | Inhibition Rifampicine [5, 10] [% inhibition] | Inhibition Rifampicine [6, 11] [% inhibition] | Solubility [7, 12] [mM] | NOAEL [8] [mmol Gd/kg bw] | Inhibition Rifampicine [5] [% inhibition] | Inhibition Rifampicine [6] [% inhibition] | excreted into the bile [9] | Solubility ([7]; pH 7.4) [mM] | secreted into the bile [9] |
| --- | --- | --- | --- | --- | --- | --- | --- | --- | --- | --- | --- | --- | --- | --- | --- |
| O=C([O-])CN1CCN(CC(=O)[O-])CCN([C@H](CO)[C@H](O)CO)CCN(CC(=O)[O-])CC1.[Gd+3] (racemic) [RC3, gadobutrol] | stable | 5.2 | 3.3 |  |  |  |  |  |  |  |  |  |  |  |  |
| COCCOCCOCCOc1ccc(C[C@H]2CN(CC(=O)[O-])CCN(CC(=O)[O-])CCN(CC(=O)O)CCN2CC(=O)[O-])cc1.[Gd+3] [Example 1, Gadolinium-2,2',2"-[(2S)-10-(carboxymethyl)-2-(4-{2-[2-(2-methoxyethoxy)-ethoxy]ethoxy}benzyl)-1,4,7,10-tetraazacyclododecane-1,4,7-triyl]triacetate] |  |  |  | 90 | 6.6 | 5.1 | 21 | 92 | > 201 |  |  |  |  |  |  |
| CCOCCOCCOc1ccc(C[C@H]2CN(CC(=O)[O-])CCN(CC(=O)[O-])CCN(CC(=O)O)CCN2CC(=O)[O-])cc1.[Gd+3] [Example 2, Gadolinium-2,2',2"-[(2S)-10-(carboxymethyl)-2-{4-[2-(2-ethoxyethoxy)ethoxy]benzyl}-1,4,7,10-tetraazacyclododecane-1,4,7-triyl]triacetate] | 95% |  |  | 93 | 5.9 | 4.9 | 0 | 86 | > 55 |  |  |  |  |  |  |
| COCCOCCOCCOc1ccc(C[C@@H]2CN(CC(=O)[O-])CCN(CC(=O)[O-])CCN(CC(=O)O)CCN2CC(=O)[O-])cc1.[Gd+3] [Example 3, Gadolinium-2,2',2"-[(2R)-10-(carboxymethyl)-2-(4-(2-[2-(2-methoxyethoxy)ethoxy]ethoxy}benzyl)-1,4,7,10-tetraazacyclododecane-1,4,7-triyl]triacetate] |  |  |  | 83 | 6.8 | 5.0 | 31 | 84 | > 166 |  |  |  |  |  |  |
| CCOCCOc1ccc(C[C@H]2CN(CC(=O)[O-])CCN(CC(=O)[O-])CCN(CC(=O)O)CCN2CC(=O)[O-])cc1.[Gd+3] [Example 4] |  |  |  | 94 | 6.6 | 4.8 | 29 | 97 | > 738 | 2.50 |  |  |  |  |  |
| CCOCCOCCOCCOc1ccc(C[C@H]2CN(CC(=O)[O-])CCN(CC(=O)[O-])CCN(CC(=O)O)CCN2CC(=O)[O-])cc1.[Gd+3] [Example 5, Gadolinium-2,2',2"-[(2S)-10-(carboxymethyl)-2-(4-{2-[2-(2-ethoxyethoxy)ethoxy]ethoxy}benzyl)-1,4,7,10-tetraazacyclododecane-1,4,7-triyl]triacetate] | 96% |  |  | 89 | 5.7 | 5.1 | 41 | 96 | > 284 |  |  |  |  |  |  |
| CCOCCOCCOc1ccc(C[C@H]2CN(CC(=O)[O-])CCN(CC(=O)[O-])CCN(CC(=O)O)CCN2CC(=O)[O-])nc1.[Gd+3] [Example 6, Gadolinium 2,2',2"-[(2S)-10-(carboxymethyl)-2-({5-[2-(2-ethoxyethoxy)ethoxy]pyridin-2-yl}methyl)-1,4,7,10-tetraazacyclododecane-1,4,7-triyl]triacetate] |  |  |  | 91 | 5.9 | 5.3 | 2 | 65 |  |  |  |  |  |  |  |
| CCOc1ccc(CC(CN(CCN(CC(=O)[O-])CC(=O)[O-])CC(=O)[O-])N(CC(=O)[O-])CC(=O)[O-])cc1.[Gd+3].[Na+].[Na+] (stereo not shown) [RC1, gadoxetate disodium, reference compound] |  | 6.9 | 4.7 | 97 |  |  |  |  |  |  | 81 | 99 | up to 50 % of the administered dose | > 250 |  |
| O=C([O-])CN(CCN(CC(=O)[O-])CC(=O)[O-])CCN(CC(=O)[O-])C(COCc1ccccc1)C(=O)[O-].[Gd+3].[H+].[H+] (stereo not shown) [RC2, gadobenic acid] |  | 6.3 | 4.0 | 79 |  |  |  |  |  |  |  |  |  |  | 3-to-5% |
